Test system: Aphelenchoides besseyi
Assay: Soybean pot trial in the greenhouse, seed treatment, nematode control
Assay type: in vivo
Conditions: 28-day after inoculation assessment
Description: A soybean pot trial was carried out in the greenhouse of Holambra Field Station, state of Sao Paulo, Brazil, to evaluate the efficacy of nematicidal treatments against Aphelenchoides besseyi.
The seeds of the susceptible soybean variety Nidera 6828 IPRO were treated (seed treatment) at the field station with the use of a slurry (spray solution) of 0.6 liter per 100 kg of seeds of soybean. The treated seeds (treatments 3-10) were then compared with the untreated checks.
Two seeds were sowed in 1-liter pots with the Holambra Mix (25% of Holambra station soil and 75% pasteurized sand). […] The inoculation of each plant with the nematode was performed at 8 days after emergence (at the crop stage V1) by using a pipet with 1000 juveniles of Aphelenchoides per plant, directed to the base of the plant. Each plot of the trial was 1 pot containing 1 infested plant of soybean. A total of 6 replicates per treatment was used. The plants were grown in separated plastic chambers (to avoid contamination of plots) inside a greenhouse that averaged 30° C. in the day and 20° C. in the night. Plants were watered many times per day (for keeping a favourable environment for the growth of nematode population and migration to the aerial part of plants) by an automatic sprinkler system. […]

O=C(N[C@@H]1CC[C@@H]1c1ccc(Cl)cc1Cl)c1cccnc1C(F)(F)F (racemic) [cyclobutrifluram]
comparison to Avicta 500FS and Ilevo 600FS (even at the lowest rate tested of 5 g AI per 100 kg of seeds): statistically superior
activity against Aphelenchoides besseyi which attacked soybean (seed treatment): excellent activity

Source: patent US12628825B2, “Methods of controlling or preventing infestation of plants by plant-parasitic nematodes of the genus Aphelenchoides spp., especially Aphelenchoides besseyi” (SYNGENTA CROP PROTECTION AG, priority 2020, dated 2026)
